Results taken from patent publication US8350042B2, “Antiviral compounds for the treatment of HCV infection” (The Regents of the University of California, priority 2008, dated 2013).

System: BM4-5 FEO replicon (genotype 1b HCV)
Test: HCV replicon assay
Settings: cells stably expressing BM4-5 FEO replicon, 48 hours incubation
Protocol: HCV replicon assays were used to measure compound activity in cells. The impact of compounds on HCV replicon replication was assessed, using a method that was previously described (ref.: Wyles, D. L., Kaihara, K. A., Vaida, F. & Schooley, R. T. Synergy of small molecular inhibitors of hepatitis C virus replication directed at multiple viral targets. J Virol 81, 3005-8 (2007).) in cells stably expressing the BM4-5 FEO replicon in 96-well plates (10,000 cells/well). […] For testing the effect of compounds on the HCV replicon cells were incubated with compound for 48 hours and the results expressed as the mean (±SEM) of the relative light units for each condition. A sigmoidal dose response curve was then fitted to the data using Prism4.0 (GraphPad Software).

Question: Which “Inhibition of HCV in a subgenomic replicon” value does the source give for `CC(=O)c1ccc(C(=O)N[C@@H](CCCCN)C(=O)N2C[C@H](N)C[C@H](N)C2)cc1` [Formula III] here?
Answer: inhibition of HCV
